Consider two molecules from article PMC11399263 (Nature Communications, 2024).

For one assay, the target named is T1, MefHα/DmgHβ (Aminobacter niigataensis, UniProt A0AAX7FLU4).
T1 construct: gene N7E70_023840; subunit-swapped heteromer of full-length subunits from two strains, co-expressed in E. coli; with Dimethylguanidine hydrolase subunit beta
T1 sequence (A0AAX7FLU4 20-376): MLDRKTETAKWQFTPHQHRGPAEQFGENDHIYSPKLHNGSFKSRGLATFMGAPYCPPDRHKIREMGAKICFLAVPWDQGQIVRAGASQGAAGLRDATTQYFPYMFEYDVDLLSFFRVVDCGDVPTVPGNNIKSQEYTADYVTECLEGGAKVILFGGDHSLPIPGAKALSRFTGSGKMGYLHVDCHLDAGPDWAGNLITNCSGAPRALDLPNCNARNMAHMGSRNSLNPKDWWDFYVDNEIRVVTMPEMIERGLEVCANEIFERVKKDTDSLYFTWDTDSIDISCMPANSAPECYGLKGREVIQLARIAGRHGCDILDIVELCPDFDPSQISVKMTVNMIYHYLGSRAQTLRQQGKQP
T1 sequence (A0ABR6L539 1-348 partner): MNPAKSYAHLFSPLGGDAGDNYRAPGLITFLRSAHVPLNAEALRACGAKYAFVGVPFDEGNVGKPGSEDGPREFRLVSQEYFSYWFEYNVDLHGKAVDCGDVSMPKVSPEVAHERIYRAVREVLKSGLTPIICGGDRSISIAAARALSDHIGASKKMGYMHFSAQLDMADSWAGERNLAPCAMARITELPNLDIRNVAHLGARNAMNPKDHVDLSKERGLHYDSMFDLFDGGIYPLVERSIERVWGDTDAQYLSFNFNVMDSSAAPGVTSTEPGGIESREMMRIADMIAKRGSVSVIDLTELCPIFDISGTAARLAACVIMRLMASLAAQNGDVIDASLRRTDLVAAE
Description: guanylurea production by LC-MS. It counts as biochemical. The following applies: 2 mM substrate, Tris-HCl pH 8, 30 °C.

The target of assay [1] is 6x His-tagged metformin hydrolase α subunit of Aminobacter niigataensis MD1 (Aminobacter niigataensis MD1). Description: crystal structure; 6x His-AnMefH complex, 13.3 mg/ml; crystals from 20% PEG 3350, 100 mM Bis Tris Propane-HCl pH 6.5, 200 mM NaF, 18 °C; soaked with urea.

For `CN(C)C(=N)NC(=N)N` [metformin], the “guanylurea production by LC-MS” value at MefHα/DmgHβ is “MefHα/DmgHβ preferentially hydrolyzed metformin”.
With “metformin hydrolase β subunit of Aminobacter niigataensis MD1, untagged (natural protein)”, in assay [1], the stoichiometry N (MefHβ per MefHα) turned out to be 2.
